In US10961539B2, “Promoter system inducing expression by 3-hydroxypropionic acid and method for biological production of 3-hydroxypropionic acid using same” (NOROO IC Co., Ltd., priority 2015, dated 2021):

Assays:
[1] = tested on: 3hpdh, 3hibdhIV, and mmsadh; experiment: Inducer specificity of gene expression (FIGS. 4 and 5); assay type: cell-based, Pseudomonas denitrificans; conditions: for inducer of expression of mmsadh and 3hibdhIV: FIG. 4; for amplification of the genes 3hpdh, 3hibdhIV and mmsadh by the compound: FIGS. 4 and 5
[2] = tested on: 3hpdh; experiment: RT-PCR relative mRNA level of 3-HP catabolic gene; conditions: FIG. 5

Row | SMILES | inducer of expression of mmsadh and 3hibdhIV [1] | amplification of the genes 3hpdh, 3hibdhIV and mmsadh by the compound [1] | inducer of expression of 3hpdH [2]
1 | CC(C)[C@H](N)C(=O)O [L-valine] | acts as an inducer | induced | acts as an inducer
2 | OCCCO [1,3-propanediol] | – | not induced | –
3 | CC(O)CC(=O)O (centres unmarked) [3-HB, 3-hydroxybutyrate] | acts as an inducer | amplified | acts as an inducer
4 | CC(CO)C(=O)O (centres unmarked) [3HIB, 3-hydroxyisobutyrate] | acts as an inducer | amplified | acts as an inducer
5 | CCC(=O)O [propionic acid] | – | not induced | –
6 | CC(O)C(C)O (centres unmarked) [2,3-butandiol] | – | not induced | –
7 | CC(=O)O [acetic acid] | – | not induced | –
8 | CC(O)C(=O)O (centres unmarked) [lactic acid] | – | not induced | –
